Read-outs that look alike come from different tables or passages of the source.
How the values were obtained:
hERG channel = target: T1, hERG channel (Homo sapiens, UniProt Q12809); experiment: hERG channel inhibition assay (patch-clamp, CHOhERG cells); type: cell-based; conditions: for safety window (hERG IC20/TLR7/8/9 IC50) compared to the compounds of this invention: in words; for hERG IC20/TLR7 IC50 / hERG IC20/TLR8 IC50 / hERG IC20/TLR9 IC50: safety ratio, >30 suggests sufficient window
T1 construct: expressed in transfected cells; host or cells: CHO (Chinese hamster ovary), CHOhERG
Protocol: hERG Channel Inhibition Assay:
The hERG K^+ channels were cloned in humans and stably expressed in a CHO (Chinese hamster ovary) cell line. CHOhERG cells were used for patch-clamp (voltage-clamp, whole-cell) experiments. Cells were stimulated by a voltage pattern to activate hERG channels and conduct hERG currents (rapid delayed outward rectifier potassium current of the hERG channel). After the cells were stabilized for a few minutes, the amplitude and kinetics of IKhERG were recorded at a stimulation frequency of 0.1 Hz (6 bpm). Thereafter, the test compound was added to the preparation at increasing concentrations. For each concentration, an attempt was made to reach a steady-state effect, usually, this was achieved within 3-10 min at which time the next highest concentration was applied. The amplitude and kinetics of IKhERG are recorded in each concentration of the drug which were compared to the control values (taken as 100%). (references: Redfern W S, Carlsson L, Davis A S, Lynch W G, MacKenzie I, Palethorpe S, Siegl P K, Strang I, Sullivan A T, Wallis R, Camm A J, Hammond T G. 2003; Relationships between preclinical cardiac electrophysiology, clinical QT interval prolongation and torsade de pointes for a broad range of drugs: evidence for a provisional safety margin in drug development. Cardiovasc. Res. 58:32-45, Sanguinetti MC, Tristani-Firouzi M. 2006; hERG potassium channels and cardiac arrhythmia. Nature 440:463-469, Webster R, Leishman D, Walker D. 2002; Towards a drug concentration effect relationship for QT prolongation and torsades de pointes. Curr. Opin. Drug Discov. Devel. 5:116-26).

TLR9 [1] = target: T2, TLR9 (Homo sapiens, UniProt Q9NR96); set-up: host or cells: HEK cells; conditions: data disclosed in US20150105370; read-out: HEK/hTLR9 IC50; cited from earlier work
T2 sequence (Q9NR96 26-1032): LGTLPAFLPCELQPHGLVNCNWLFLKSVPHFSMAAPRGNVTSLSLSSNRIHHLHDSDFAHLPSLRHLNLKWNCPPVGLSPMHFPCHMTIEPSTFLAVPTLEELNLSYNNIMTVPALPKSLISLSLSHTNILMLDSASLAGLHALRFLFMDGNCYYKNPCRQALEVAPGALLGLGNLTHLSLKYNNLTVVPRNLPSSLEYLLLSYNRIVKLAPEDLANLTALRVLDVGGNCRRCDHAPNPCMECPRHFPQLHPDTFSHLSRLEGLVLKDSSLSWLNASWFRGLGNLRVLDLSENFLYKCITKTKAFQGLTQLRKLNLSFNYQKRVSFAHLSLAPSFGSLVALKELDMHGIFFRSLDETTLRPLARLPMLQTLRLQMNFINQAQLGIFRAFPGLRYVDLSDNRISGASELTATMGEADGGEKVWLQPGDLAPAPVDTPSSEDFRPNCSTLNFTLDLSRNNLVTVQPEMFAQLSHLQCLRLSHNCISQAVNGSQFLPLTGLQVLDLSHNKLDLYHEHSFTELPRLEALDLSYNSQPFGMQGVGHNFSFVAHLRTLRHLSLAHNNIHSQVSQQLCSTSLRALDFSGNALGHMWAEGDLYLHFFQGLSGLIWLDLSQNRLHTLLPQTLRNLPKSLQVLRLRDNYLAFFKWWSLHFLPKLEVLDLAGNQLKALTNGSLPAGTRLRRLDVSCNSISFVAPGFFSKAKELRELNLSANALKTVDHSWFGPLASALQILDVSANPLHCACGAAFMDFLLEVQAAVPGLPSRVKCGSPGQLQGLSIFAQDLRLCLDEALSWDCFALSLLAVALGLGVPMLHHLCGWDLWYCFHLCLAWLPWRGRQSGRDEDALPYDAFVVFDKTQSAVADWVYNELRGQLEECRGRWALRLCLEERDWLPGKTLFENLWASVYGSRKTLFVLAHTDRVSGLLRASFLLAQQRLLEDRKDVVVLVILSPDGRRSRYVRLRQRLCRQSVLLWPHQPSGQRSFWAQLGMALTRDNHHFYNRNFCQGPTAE

TLR9 [2] = target: T2, TLR9; experiment: Human PBMC cell-based assay; set-up: endogenous in cells; host or cells: human PBMC from healthy donor whole blood; conditions: CpG ODN 2216 stimulation, overnight, cytokine readout, read-out: hPBMC/TLR9 IC50
Excerpt: Human PBMC Cell-Based Assay
Unlike the HEK reporter cell lines, human peripheral blood mononuclear cell (PBMC) represents primary human immune cells in blood mainly consisting of lymphocytes, monocytes, and dendritic cells. These cells express TLR7, TLR8, or TLR9, and therefore are natural responders to respective ligand stimulation. Upon activation of these TLRs, PBMCs secrete similar cytokines and chemokines in vitro and in vivo, and therefore the in vitro potency of a TLR7/8/9 antagonist in human PBMC is readily translatable to its pharmacodynamics response in vivo.
Human peripheral blood mononuclear cells (PBMC) were isolated from freshly-drawn lithium-heparinized (Lithium Heparin Plus blood Collection tube, BD Vacutainer®) healthy donor whole blood by density gradient (Ficoll-Paque™ PLUS, GE Healthcare life Sciences). Briefly, […] was diluted with 25 mL PBS (without Ca^2+, Mg^2+) in a 50 mL conical tube with porous barrier (Leucosep tube, Greiner bio-one), where 15.5 mL Ficoll-Paque was under laid after spinning. Tubes were centrifuged for 20 minutes at 800×g (1946 rpm) with the brake in the off position, and PBMC were collected from the buffy coat. Cells were then washed twice in PBS, and red blood cells were lysed by suspension in 2 mL (Red Blood Cell Lysis Buffer, Alfa Aesar) for 5-10 minutes at room temperature. After a final wash in PBS, PBMC were resuspended at a final concentration of 2×10^6 cells/mL in RPMI-1640 media with GlutaMAX™ (Gibco) supplemented with 10% Fetal Bovine Serum (Sigma) and plated at 150 μL/well (3×10^5 cells/well) in tissue culture treated round bottom 96-well plates (Corning Incorporated). Antagonist compounds (compounds of this invention) solubilized and serial diluted in 100% DMSO were added in duplicate to cells to yield a final concentration of 1% DMSO (v/v). PBMC were incubated with antagonist compounds for 30 minutes at 37° C., 5% CO2 before adding various TLR agonist reagents in 48 μL complete media per well as follows (final concentrations indicated): CpG ODN 2216 (InvivoGen) at […] for TLR9, ORN 06/LyoVec (InvivoGen) at 1 μg/mL for TLR8 and R848 (InvivoGen) at 1 μg/mL for TLR7 and TLR8. PBMC were incubated overnight at 37° C. with 5% CO2. Cell culture supernatants were collected, and levels of various human cytokines were assessed by Luminex assay (ProcartaPlex™ Multiplex Immunoassay, Invitrogen) or ELISA procedure according to the manufacturer's recommended protocol (eBioscience, ThermoFisher Scientific). Viability of the cells was also checked with Cell Viability Assay (CellTiter Glo® Luminescent Cell Viability Assay, Promega).

T1 sequence (Q12809 whole entry): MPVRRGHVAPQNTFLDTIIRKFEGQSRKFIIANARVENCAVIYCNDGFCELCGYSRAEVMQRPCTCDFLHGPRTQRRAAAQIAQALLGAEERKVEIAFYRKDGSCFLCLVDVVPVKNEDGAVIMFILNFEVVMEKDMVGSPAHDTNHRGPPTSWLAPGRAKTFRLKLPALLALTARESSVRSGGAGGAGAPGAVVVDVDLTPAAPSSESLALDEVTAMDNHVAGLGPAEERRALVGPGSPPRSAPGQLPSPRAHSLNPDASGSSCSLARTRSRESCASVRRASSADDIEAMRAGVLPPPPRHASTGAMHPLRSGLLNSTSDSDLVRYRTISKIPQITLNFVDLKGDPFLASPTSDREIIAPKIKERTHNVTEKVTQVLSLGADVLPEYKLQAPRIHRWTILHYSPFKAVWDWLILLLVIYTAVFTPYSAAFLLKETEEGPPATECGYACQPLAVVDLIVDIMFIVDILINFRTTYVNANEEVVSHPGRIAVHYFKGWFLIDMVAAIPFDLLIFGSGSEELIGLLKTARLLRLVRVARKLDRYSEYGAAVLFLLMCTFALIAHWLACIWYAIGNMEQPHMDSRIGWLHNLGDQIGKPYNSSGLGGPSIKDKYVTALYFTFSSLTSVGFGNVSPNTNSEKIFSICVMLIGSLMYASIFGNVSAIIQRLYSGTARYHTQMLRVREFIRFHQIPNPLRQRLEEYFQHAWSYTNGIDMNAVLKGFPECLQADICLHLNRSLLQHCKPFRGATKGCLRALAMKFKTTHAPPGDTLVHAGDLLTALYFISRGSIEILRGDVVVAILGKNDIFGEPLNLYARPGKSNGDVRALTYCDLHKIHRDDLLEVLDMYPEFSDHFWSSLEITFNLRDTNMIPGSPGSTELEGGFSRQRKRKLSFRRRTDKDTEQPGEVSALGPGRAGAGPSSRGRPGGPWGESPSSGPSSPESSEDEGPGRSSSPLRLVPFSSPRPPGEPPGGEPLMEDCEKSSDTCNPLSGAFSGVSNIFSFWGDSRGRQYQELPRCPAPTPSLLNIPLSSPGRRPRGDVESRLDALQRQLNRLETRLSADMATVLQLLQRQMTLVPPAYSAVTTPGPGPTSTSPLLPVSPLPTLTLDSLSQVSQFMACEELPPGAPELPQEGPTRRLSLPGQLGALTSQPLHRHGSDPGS

SMILES | safety window (hERG IC20/TLR7/8/9 IC50) compared to the compounds of this invention (hERG channel) | hERG IC20/TLR7 IC50 (hERG channel) | hERG IC20/TLR8 IC50 (hERG channel) | hERG IC20/TLR9 IC50 (hERG channel) | IC50 (TLR9 [1]) | IC50 (TLR9 [2])
COc1ccc(N2CCN(C[C@H]3CN(c4ccc(C#N)c5ncccc45)C[C@@H](C)O3)CC2)cc1 [Example R1, 5-[(2S,6R)-2-[[4-(4-methoxyphenyl)piperazin-1-yl]methyl]-6-methyl-morpholin-4-yl]quinoline-8-carbonitrile, reference compound] | much narrower safety window | 9.3 | 6.2 | 0.1 | – | –
C[C@@H]1CN(c2ccc(C#N)c3ncccc23)C[C@H](CN2CCN(c3ccccc3)CC2)O1 [ER-887258, reference compound] | much narrower safety window | 8.1 | – | 0.3 | > 2000 nM | –
Cc1nn(C)cc1S(=O)(=O)NC1CCN(C[C@H]2CN(c3ccc(C#N)c4ncccc34)C[C@@H](C)O2)CC1 [ER-894160] | – | – | – | – | > 10000 nM | –
C[C@@H]1CN(c2ccc(C#N)c3ncccc23)C[C@H](CN2CC(NS(=O)(=O)c3ccc(F)cc3)C2)O1 [ER-894155] | – | – | – | – | > 10000 nM | –
C[C@@H]1CN(c2ccc(C#N)c3ncccc23)C[C@H](CN2CC[C@@H](NC(=O)c3ccccc3)C2)O1 [ER-894544] | – | – | – | – | > 6200 nM | –
C[C@@H]1CN(c2ccc(C#N)c3ncccc23)C[C@H](CN2CCN(c3ccccn3)CC2)O1 [ER-888285, reference compound] | much narrower safety window | 8.4 | – | 0.5 | > 2000 nM | –
C[C@@H]1CN(c2ccc(C#N)c3ncccc23)C[C@H](CN2CCN(c3ccc(Cl)cc3)CC2)O1 [Example R2, 5-[(2S,6R)-2-[[4-(4-chlorophenyl)piperazin-1-yl]methyl]-6-methyl-morpholin-4-yl]quinoline-8-carbonitrile, reference compound] | much narrower safety window | 1.3 | 0.8 | 0.04 | – | –
C[C@@H]1CN(c2ccc(C#N)c3ncccc23)C[C@H](CN2CCN(c3ccncc3)CC2)O1 [ER-888286, reference compound] | much narrower safety window | 0.3 | – | 0.2 | > 2000 nM | 1630 nM

Reference: US20210300924A1, “5-[6-[[3-(4,5,6,7-TETRAHYDROPYRAZOLO[4,3-C]PYRIDIN-1-YL)AZETIDIN-1-YL]METHYL]MORPHOLIN-4-YL]QUINOLINE-8-CARBONITRILE DERIVATIVES AND SIMILAR COMPOUNDS AS TLR7-9 ANTAGONISTS FOR TREATING SYSTEMIC LUPUS ERYTHEMATOSUS” (Hoffmann-La Roche Inc., priority 2018, published 2021)
